Results: paper PMC11945486, “TAS1R2/TAS1R3 Single-Nucleotide Polymorphisms Affect Sweet Taste Receptor Activation by Sweeteners: The SWEET Project” (Nutrients, 2025)
No end group written: not given here.

Target: T1, human TAS1R2-I486V/TAS1R3-WT (Homo sapiens, UniProt Q7RTX0+Q8TE23, I486V)
T1 construct: expressed in transfected cells; host or cells: HEK293T-Gα16gust44
T1 sequence (Q8TE23 20-839 I486V): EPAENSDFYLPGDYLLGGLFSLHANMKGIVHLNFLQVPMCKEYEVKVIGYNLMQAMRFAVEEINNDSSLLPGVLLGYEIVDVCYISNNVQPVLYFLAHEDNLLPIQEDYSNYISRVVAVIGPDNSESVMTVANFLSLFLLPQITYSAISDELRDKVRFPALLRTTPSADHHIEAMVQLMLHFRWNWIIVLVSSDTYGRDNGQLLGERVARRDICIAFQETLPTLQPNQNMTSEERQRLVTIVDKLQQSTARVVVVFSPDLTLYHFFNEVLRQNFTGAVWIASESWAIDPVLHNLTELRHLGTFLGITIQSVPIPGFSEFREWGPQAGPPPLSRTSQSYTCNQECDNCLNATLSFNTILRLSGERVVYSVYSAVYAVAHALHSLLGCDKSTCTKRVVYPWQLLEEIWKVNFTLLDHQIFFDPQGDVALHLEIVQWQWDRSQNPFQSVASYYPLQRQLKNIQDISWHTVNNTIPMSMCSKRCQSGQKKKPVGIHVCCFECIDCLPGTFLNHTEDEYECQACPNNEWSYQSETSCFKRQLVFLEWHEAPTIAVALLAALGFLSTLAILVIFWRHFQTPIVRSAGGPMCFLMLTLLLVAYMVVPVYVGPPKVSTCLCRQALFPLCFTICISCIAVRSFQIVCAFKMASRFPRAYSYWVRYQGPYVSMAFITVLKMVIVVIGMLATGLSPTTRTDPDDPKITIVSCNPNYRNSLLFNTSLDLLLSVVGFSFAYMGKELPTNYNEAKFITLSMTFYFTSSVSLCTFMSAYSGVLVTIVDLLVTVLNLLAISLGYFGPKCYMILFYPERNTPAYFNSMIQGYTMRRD
T1 sequence (Q7RTX0 21-852): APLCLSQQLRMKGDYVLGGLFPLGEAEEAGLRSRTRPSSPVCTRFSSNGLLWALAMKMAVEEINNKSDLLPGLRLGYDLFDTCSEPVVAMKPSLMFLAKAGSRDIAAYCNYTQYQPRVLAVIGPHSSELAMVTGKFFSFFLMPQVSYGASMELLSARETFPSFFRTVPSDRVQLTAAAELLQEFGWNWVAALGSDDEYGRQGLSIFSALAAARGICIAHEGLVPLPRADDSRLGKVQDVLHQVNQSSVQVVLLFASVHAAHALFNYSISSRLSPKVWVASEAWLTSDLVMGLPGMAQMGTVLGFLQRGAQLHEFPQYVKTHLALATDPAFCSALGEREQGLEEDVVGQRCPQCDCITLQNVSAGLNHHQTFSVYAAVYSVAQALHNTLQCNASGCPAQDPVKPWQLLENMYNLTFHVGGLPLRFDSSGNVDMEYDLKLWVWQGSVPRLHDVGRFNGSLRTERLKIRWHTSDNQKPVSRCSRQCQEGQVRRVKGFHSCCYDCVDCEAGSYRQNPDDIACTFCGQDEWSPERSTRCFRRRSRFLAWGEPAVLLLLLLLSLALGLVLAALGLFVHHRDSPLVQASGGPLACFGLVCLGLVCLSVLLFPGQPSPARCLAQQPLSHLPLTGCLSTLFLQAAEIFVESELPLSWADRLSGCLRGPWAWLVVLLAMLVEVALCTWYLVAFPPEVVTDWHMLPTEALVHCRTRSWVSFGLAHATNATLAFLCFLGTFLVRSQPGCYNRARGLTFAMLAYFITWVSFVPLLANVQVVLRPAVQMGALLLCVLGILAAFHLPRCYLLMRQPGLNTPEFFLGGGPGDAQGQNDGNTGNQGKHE
Assay: Calcium mobilisation assay, TAS1R2 variant I486V with TAS1R3-WT
Assay type: cell-based
Conditions: for Max ΔF/F0: maximal signal amplitude
Text: The coding sequences for TAS1R2 and TAS1R3 were commercially synthesised, and the human codon was optimised for expression in human cells. The coding sequences of human TAS1R2 and TAS1R3 were subcloned and inserted into the mammalian expression vectors pcDNA6/myc-HisA and pcDNA4/myc-HisA (Invitrogen; Thermo Fisher Scientific; Illkirch, France) between the EcoRI and NotI restriction sites, generating the plasmids pcDNA6-TAS1R2 and pcDNA4-TAS1R3, respectively. To increase protein expression in mammalian cells, an upstream start codon was used, which was a sequence called MAX, corresponding to the QBI SP163 element also described in pcDNA4-HisMax (Invitrogen; Thermo Fisher Scientific; Illkirch, France). To measure the expression level of the receptor by immunohistochemistry, we used the FLAG sequence ([…]) in the C-terminal position, which encodes the FLAG tag epitope. SNP variants of TAS1R2 and TAS1R3 were constructed based on […], respectively, using site-directed mutagenesis (Genewiz; Leipzig, Germany).
The HEK293T cells were kindly provided by Jay P. Slack (Givaudan Flavors Corporation; Cincinnati, OH, USA). HEK293T cells stably transfected with Gα16gust44 [43, 67] were seeded in poly-D-lysine-coated clear-bottom black 96-well plates (0.35 × 10^5 cells/well) in high-glucose DMEM supplemented with 2 mM GlutaMAX, 10% dialysed foetal bovine serum with penicillin/streptomycin and G418 (400 μg/mL) at 37 °C and 6.3% CO2 in a humidified atmosphere as previously reported. […] As a negative control, HEK293T cells were mock-transfected with the empty expression vector. After a further 24 h of incubation, the HEK293T cells were washed with C1 buffer (130 mM NaCl, 5 mM KCl, 10 mM HEPES pH 7.4 and 2 mM CaCl2). The 96-well plates containing the cells were then stimulated with sweet-tasting compounds. […] Different concentration ranges were tested depending on the sweet compound injected. The Ca^2+ changes were expressed as fractional changes in fluorescent light intensity: ΔF/F = (F − F0)/F0, where F was the fluorescent light intensity at each point, and F0 was the value of emitted fluorescent light prior to stimulus application. To calculate dose–response relationships, the changes in fluorescence upon stimulus application were averaged, mock-subtracted and baseline-corrected. The dose–response data obtained were adjusted using a 4-parameter logistic equation. The half-maximal effective concentrations (EC50 values) and maximal signal amplitudes were calculated using SigmaPlot software (version 15.0) (Systat Software; San Jose, CA, USA).
For in vitro calcium mobilisation assay performed on hTAS1R2-SNPs, hTAS1R3-SNPs and mTAS1R3-I60T, 6 to 7 concentrations were tested for each sweet compound, plus buffer alone. All concentration–receptor combinations were measured in duplicate, and each experiment was repeated at least 4 times (8 wells/concentration). Results were expressed for each concentration as ΔF/F mean ± SEM and represented as dose–response curves.

Molecule	EC50 [µM]	R1 = Variant EC50/WT EC50	Max ΔF/F0
CC1=CC(=O)NS(=O)(=O)O1 [Acesulfame K, acesulfame K]	778 ± 108	1.1	0.46 ± 0.03
O=S(=O)(O)NC1CCCCC1 [Cyclamate, cyclamate]	1880 ± 36		
C[C@H](CC[C@@H](O[C@@H]1O[C@H](CO[C@@H]2O[C@H](CO)[C@@H](O)[C@H](O)[C@H]2O)[C@@H](O)[C@H](O)[C@H]1O[C@@H]1O[C@H](CO)[C@@H](O)[C@H](O)[C@H]1O)C(C)(C)O)[C@H]1CC[C@@]2(C)[C@@H]3CC=C4[C@@H](CC[C@H](O[C@@H]5O[C@H](CO[C@@H]6O[C@H](CO)[C@@H](O)[C@H](O)[C@H]6O)[C@@H](O)[C@H](O)[C@H]5O)C4(C)C)[C@]3(C)[C@H](O)C[C@]12C [Mogroside V, mogroside V]	20.1 ± 0.9	1.2	1.39 ± 0.02
COc1ccc(CCC(=O)c2c(O)cc(O[C@@H]3O[C@H](CO)[C@@H](O)[C@H](O)[C@H]3O[C@@H]3O[C@@H](C)[C@H](O)[C@@H](O)[C@H]3O)cc2O)cc1O [NHDC, neohesperidin dihydrochalcone]	92.6 ± 5.2	1.2	0.92 ± 0.02
COC(=O)[C@H](Cc1ccccc1)NC(=O)[C@H](CC(=O)O)NCCC(C)(C)C [Neotame]	0.71 ± 0.06	0.8	0.61 ± 0.01
C=C(C)[C@@H]1CC=C(/C=N/O)CC1 [Perillartine, perillartine]	17.7 ± 1.2	1.0	1.49 ± 0.04
C=C1C[C@@]23CC[C@H]4[C@@](C)(CCC[C@@]4(C)C(=O)O[C@@H]4O[C@H](CO)[C@@H](O)[C@H](O[C@@H]5O[C@H](CO)[C@@H](O)[C@H](O)[C@H]5O)[C@H]4O[C@@H]4O[C@H](CO)[C@@H](O)[C@H](O)[C@H]4O)[C@@H]2CC[C@]1(O[C@@H]1O[C@H](CO)[C@@H](O)[C@H](O[C@@H]2O[C@H](CO)[C@@H](O)[C@H](O)[C@H]2O)[C@H]1O[C@@H]1O[C@H](CO)[C@@H](O)[C@H](O)[C@H]1O)C3 [Rebaudioside M, rebaudioside M]	17.6 ± 0.6	1.0	1.20 ± 0.01
OC[C@H]1O[C@H](O[C@]2(CCl)O[C@H](CCl)[C@@H](O)[C@@H]2O)[C@H](O)[C@@H](O)[C@H]1Cl [Sucralose]	54 ± 5	0.6	0.69 ± 0.02
brazzein (QDKCKKVYENYPVSKCQLANQCNYDCKLDKHARSGECFYDEKRNLQCICDYCEY; ends and bridges not checked; cysteine pairing not given here; UniProt P56552 1-54, looked up) [sweet-tasting protein obtained by recombinant production using the yeast Pichia pastoris]		1.1	1.19 ± 0.03
thaumatin		1.4	1.21 ± 0.02
thaumatin (protein, Eight disulfides, sweet-tasting plant protein, E957) ATFEIVNRCSYTVWAAASKGDAALDAGGRQLNSGESWTINVEPGTKGGKIWARTDCYFDDSGSGICKTGDCGGLLRCKRFGRPPTTLAEFSLNQYGKDYIDISNIKGFNVPMDFSPTTRGCRGVRCAADIVGQCPAKLKAPGGGCNDACTVFQTSEYCCTTGKCGPTEYSRFFKRLCPDAFSYVLDKPTTVTCPGSSNYRVTFCPTA	10.5 ± 0.3		
